Measured values as given in ChEMBL document CHEMBL5465560, “Selectivity Literature for EUbOPEN Chemogenomic Library” (2024).

How the values were obtained:
[1] = target: Mast/stem cell growth factor receptor Kit (Homo sapiens, UniProt P10721); conditions: at 10 µM
[2] = target: T1, Myosin-IIIb (Homo sapiens) (UniProt Q8WXR4); experiment: Selectivity interaction (KinomeScan (DiscoverX)) EUB0000229b MYO3B; conditions: at 10 µM
T1 sequence (whole entry): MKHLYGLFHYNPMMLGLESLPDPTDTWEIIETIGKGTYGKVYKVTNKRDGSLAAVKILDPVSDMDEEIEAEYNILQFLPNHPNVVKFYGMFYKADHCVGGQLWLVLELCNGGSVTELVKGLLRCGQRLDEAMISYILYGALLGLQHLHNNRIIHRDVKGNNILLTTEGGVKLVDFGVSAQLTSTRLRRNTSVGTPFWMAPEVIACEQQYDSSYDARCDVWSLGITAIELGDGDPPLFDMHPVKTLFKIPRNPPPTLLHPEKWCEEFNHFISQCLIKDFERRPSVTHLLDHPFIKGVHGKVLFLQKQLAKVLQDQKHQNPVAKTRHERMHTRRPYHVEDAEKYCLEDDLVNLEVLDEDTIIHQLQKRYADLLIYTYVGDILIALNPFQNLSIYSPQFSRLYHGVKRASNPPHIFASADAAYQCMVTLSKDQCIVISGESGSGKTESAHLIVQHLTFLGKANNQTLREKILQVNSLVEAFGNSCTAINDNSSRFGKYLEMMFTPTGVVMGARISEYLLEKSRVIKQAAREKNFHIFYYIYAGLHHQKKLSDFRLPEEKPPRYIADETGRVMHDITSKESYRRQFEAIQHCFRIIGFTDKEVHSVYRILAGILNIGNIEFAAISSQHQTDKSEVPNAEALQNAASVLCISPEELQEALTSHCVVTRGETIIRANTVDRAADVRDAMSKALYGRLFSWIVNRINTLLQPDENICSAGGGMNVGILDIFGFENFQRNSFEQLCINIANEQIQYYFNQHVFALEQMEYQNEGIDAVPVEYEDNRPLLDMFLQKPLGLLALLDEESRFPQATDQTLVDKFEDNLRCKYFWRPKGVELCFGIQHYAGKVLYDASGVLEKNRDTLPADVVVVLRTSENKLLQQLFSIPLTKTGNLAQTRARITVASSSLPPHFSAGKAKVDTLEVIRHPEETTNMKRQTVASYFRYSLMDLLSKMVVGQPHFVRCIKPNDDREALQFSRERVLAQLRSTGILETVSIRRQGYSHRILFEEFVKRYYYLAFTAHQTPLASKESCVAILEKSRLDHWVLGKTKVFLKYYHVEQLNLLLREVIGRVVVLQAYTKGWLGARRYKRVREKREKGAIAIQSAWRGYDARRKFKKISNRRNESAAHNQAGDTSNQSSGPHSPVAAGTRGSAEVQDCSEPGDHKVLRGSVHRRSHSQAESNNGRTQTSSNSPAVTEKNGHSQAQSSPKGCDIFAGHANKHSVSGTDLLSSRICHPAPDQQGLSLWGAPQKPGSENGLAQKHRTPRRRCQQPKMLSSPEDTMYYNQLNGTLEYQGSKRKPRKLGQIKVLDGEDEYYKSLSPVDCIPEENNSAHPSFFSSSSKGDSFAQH

[3] = target: T2, Serine/threonine-protein kinase DCLK1 (Homo sapiens) (UniProt O15075); experiment: Selectivity interaction (KinomeScan (DiscoverX)) EUB0000655a DCLK1; conditions: at 10 µM
T2 sequence (whole entry): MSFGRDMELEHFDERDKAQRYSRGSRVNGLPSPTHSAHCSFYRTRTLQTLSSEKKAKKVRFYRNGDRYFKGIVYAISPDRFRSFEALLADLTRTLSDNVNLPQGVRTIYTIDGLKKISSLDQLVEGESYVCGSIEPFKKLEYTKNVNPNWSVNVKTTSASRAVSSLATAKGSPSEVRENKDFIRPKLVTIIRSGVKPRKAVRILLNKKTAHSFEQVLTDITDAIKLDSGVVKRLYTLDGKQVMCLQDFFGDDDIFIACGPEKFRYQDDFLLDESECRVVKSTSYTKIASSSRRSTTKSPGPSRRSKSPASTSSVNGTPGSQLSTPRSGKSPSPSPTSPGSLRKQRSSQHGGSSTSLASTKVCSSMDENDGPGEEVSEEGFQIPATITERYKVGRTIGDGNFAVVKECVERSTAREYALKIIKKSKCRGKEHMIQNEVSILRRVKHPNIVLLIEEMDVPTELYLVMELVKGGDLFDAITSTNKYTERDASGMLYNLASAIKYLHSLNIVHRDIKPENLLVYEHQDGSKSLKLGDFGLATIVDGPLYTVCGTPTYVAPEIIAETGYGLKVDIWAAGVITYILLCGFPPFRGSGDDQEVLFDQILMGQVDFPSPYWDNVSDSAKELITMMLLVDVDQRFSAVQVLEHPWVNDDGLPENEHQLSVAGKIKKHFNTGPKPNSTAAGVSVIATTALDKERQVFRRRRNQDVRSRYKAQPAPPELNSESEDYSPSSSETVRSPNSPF

[4] = target: Protein-tyrosine kinase 6 (Homo sapiens, UniProt Q13882); experiment: Selectivity interaction (ProQinase) EUB0000171b PTK6
Sequence of Protein-tyrosine kinase 6 (Q13882 whole entry, looked up): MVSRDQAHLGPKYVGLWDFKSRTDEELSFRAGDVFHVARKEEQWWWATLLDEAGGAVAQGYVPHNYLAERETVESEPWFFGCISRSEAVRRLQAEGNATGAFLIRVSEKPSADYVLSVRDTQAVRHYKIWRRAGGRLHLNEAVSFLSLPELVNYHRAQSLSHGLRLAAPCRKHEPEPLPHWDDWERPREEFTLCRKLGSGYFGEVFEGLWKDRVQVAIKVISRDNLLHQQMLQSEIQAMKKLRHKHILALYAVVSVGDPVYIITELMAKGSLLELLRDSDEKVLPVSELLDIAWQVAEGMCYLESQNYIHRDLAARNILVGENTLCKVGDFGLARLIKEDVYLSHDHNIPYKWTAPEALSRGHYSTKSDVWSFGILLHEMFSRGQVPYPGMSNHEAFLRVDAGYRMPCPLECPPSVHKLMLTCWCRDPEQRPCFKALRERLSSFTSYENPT

[5] = target: Mitogen-activated protein kinase kinase kinase 20 (Homo sapiens) (UniProt Q9NYL2); experiment: Selectivity interaction (Kinase panel (KiNativ target engagement assay in Jurkat cells)) EUB0001635a MAP3K20; format: cell-based; conditions: Selectivity number of off-targets 0.0, Selectivity number of targets 233.0, Source Knowledge https://www.sciencedirect.com/science/article/pii/S2451945619300674?via%3Dihub, at 1 µM
Sequence of Mitogen-activated protein kinase kinase kinase 20 (Homo sapiens) (Q9NYL2 2-800 limits assumed): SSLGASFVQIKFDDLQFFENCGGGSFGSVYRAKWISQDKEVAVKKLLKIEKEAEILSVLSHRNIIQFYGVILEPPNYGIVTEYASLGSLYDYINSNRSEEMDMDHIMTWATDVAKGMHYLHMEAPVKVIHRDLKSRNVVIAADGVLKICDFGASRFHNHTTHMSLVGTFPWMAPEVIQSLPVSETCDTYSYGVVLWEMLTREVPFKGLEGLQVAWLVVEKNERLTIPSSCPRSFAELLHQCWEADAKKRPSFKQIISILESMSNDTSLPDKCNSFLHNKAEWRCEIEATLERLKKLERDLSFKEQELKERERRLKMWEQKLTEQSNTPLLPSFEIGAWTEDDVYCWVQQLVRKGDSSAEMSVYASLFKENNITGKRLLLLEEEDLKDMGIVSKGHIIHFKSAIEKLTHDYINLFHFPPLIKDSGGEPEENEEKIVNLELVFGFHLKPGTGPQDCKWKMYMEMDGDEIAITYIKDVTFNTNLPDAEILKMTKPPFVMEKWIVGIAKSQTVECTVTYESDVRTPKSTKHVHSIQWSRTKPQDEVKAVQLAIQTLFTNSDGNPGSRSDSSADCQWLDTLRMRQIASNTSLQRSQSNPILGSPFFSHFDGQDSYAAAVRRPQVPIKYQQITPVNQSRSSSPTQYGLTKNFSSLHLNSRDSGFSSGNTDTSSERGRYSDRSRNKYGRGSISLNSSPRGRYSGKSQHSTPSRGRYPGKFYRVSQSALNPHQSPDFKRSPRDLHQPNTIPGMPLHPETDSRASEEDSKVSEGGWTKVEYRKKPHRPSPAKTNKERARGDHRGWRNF

[6] = target: Macrophage colony-stimulating factor 1 receptor (Homo sapiens) (UniProt P07333); experiment: Selectivity interaction (KinomeScan (DiscoverX)) EUB0000666a CSF1R; conditions: at 10 µM
Sequence of Macrophage colony-stimulating factor 1 receptor (Homo sapiens) (P07333 whole entry): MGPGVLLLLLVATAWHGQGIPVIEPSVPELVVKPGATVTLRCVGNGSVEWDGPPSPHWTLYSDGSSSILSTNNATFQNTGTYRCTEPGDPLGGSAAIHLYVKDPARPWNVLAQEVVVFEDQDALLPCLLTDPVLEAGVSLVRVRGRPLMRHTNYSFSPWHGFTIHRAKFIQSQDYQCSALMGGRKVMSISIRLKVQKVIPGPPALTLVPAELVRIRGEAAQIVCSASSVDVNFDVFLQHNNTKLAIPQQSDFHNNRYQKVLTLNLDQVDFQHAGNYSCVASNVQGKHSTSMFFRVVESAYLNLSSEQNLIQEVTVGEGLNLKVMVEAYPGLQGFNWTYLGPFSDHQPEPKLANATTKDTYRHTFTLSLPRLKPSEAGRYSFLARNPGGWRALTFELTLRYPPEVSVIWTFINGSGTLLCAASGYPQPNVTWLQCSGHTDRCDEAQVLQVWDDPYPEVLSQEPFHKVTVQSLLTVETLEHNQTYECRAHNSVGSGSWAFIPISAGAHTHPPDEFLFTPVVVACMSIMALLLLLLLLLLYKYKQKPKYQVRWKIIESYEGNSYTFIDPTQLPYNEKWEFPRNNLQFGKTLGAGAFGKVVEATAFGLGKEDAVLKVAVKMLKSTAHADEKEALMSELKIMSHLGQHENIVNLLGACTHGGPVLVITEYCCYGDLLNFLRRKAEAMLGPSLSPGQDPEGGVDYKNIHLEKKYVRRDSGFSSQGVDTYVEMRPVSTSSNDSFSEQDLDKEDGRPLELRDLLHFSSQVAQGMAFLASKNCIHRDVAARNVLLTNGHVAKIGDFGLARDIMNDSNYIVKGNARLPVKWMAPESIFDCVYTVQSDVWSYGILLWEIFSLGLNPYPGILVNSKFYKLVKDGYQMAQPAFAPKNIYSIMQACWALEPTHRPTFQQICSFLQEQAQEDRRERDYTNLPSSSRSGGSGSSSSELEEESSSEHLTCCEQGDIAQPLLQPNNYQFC

[7] = target: Serine/threonine-protein kinase PRP4 homolog (Homo sapiens) (UniProt Q13523); experiment: Selectivity interaction (ActivX KiNativ screen (kinase selectivity in THP-1 cell lysates)) EUB0000639a PRPF4; format: subcellular; conditions: lysate, at 0.04 µM
[8] = target: Tyrosine-protein kinase JAK1 (Homo sapiens, UniProt P23458); experiment: Selectivity interaction (KinomeScan (DiscoverX)) EUB0000607a JAK1; conditions: at 10 µM
Sequence of Tyrosine-protein kinase JAK1 (P23458 whole entry): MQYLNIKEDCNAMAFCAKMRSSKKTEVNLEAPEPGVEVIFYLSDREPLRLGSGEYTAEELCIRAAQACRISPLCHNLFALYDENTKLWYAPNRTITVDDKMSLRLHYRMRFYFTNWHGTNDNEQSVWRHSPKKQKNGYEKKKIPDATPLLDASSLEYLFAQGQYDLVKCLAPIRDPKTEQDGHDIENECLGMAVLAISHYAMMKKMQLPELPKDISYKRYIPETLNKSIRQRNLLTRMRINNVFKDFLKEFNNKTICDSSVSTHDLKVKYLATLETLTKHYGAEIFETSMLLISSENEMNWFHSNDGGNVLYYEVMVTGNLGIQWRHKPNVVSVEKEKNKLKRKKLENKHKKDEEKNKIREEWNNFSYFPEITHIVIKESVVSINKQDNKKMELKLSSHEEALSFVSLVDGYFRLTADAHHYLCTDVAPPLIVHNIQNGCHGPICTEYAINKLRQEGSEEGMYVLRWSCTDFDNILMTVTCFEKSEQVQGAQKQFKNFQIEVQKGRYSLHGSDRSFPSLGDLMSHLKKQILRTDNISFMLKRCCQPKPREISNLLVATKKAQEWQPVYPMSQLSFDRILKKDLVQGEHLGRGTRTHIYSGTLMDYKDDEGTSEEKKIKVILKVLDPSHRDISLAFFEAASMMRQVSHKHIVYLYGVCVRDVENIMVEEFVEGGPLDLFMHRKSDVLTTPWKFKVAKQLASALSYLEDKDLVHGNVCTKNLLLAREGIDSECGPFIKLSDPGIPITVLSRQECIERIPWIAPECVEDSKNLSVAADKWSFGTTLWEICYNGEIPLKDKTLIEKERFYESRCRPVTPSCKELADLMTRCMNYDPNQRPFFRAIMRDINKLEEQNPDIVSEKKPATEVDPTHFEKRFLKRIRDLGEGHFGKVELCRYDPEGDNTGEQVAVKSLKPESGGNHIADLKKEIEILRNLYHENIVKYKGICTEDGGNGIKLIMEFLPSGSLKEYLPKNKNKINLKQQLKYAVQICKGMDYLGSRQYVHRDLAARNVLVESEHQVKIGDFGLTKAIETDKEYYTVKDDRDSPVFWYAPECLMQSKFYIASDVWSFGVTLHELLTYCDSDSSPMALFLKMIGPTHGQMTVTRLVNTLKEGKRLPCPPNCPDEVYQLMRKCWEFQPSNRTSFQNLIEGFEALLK

[9] = target: Calcium/calmodulin-dependent protein kinase kinase 1 (Homo sapiens) (UniProt Q8N5S9); experiment: Selectivity interaction (KinomeScan (DiscoverX)) EUB0001049a CAMKK1; conditions: at 1 µM
Sequence of Calcium/calmodulin-dependent protein kinase kinase 1 (Homo sapiens) (Q8N5S9 whole entry, looked up): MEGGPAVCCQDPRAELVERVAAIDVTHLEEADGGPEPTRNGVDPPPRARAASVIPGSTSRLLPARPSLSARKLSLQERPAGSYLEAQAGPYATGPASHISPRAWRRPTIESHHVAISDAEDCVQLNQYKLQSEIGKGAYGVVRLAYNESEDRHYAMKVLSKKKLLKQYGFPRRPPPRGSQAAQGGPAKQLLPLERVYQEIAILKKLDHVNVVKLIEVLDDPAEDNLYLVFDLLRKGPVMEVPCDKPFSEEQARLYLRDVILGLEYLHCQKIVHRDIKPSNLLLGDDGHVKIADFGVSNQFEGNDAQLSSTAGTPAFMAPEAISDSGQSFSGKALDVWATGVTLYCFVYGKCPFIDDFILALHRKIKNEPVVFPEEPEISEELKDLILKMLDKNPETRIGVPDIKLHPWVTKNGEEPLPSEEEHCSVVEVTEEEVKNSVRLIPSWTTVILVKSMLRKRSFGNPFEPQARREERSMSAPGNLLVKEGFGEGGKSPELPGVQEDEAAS

[10] = target: Serine/threonine-protein kinase N2 (Homo sapiens, UniProt Q16513); experiment: Selectivity interaction (KinomeScan (DiscoverX)) EUB0000695a PKN2; conditions: at 100 nM

Sequence of Mast/stem cell growth factor receptor Kit (P10721 whole entry): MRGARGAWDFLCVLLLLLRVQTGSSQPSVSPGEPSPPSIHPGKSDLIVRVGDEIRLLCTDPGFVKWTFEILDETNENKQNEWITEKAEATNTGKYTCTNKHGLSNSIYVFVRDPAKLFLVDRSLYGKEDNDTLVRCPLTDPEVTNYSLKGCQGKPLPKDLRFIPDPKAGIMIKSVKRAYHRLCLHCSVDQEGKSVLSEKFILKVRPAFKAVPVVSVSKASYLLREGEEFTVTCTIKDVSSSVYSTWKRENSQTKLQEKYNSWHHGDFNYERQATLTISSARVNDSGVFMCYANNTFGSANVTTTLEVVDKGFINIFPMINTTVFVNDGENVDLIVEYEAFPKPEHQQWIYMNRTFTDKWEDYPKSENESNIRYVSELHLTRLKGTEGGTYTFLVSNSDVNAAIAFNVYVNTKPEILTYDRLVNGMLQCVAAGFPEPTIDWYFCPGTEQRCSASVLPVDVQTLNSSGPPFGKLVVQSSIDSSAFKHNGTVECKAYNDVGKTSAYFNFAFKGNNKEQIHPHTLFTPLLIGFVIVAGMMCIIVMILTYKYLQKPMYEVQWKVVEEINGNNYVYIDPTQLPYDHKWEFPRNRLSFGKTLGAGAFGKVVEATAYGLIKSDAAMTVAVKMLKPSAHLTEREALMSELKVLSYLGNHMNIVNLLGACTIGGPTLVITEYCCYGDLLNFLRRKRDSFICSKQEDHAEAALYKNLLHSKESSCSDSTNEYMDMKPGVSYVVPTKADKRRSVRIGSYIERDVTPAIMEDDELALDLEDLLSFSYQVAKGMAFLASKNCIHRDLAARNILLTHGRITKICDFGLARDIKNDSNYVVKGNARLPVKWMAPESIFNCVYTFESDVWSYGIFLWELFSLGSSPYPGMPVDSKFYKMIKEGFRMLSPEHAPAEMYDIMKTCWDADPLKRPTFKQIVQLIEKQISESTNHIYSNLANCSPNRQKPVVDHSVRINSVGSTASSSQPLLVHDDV

CCN(CC)CCCCNc1ncc2cc(-c3cc(OC)cc(OC)c3)c(NC(=O)NC(C)(C)C)nc2n1
% of control [1]: 100%

COc1cc(N(C)c2ccnc3ccc(C(F)(F)F)cc23)cc(OC)c1OC
% binding [2]: 100%

CN(C)CCOc1ccc(-c2nc(-c3ccncc3)c(-c3ccc4c(c3)CC/C4=N\O)[nH]2)cc1
% of control [3]: 88%

C=CC(=O)Nc1cccc(C(=O)Nc2ccc(Nc3cc(-c4[nH]c(SC)nc4C)ccn3)cc2)c1
% of control ([4]; at 1 µM): 101%
% of control ([4]; at 5 µM): 105%

C=CC(=O)Nc1ccc(C(=O)Nc2[nH]nc3c2CN(C(=O)N[C@H](CN(C)C)c2ccccc2)C3(C)C)cc1
% of engagement [5]: -9.7%

O=C(NOC[C@H](O)CO)c1ccc(F)c(F)c1Nc1ccc(I)cc1F
% of control [6]: 80%

CC[C@@H]1[C@H](F)C(=O)N[C@@H]1COc1nccc2cc(C(N)=O)c(OC)cc12 [ZIMLOVISERTIB]
% of inhibition [7]: 16%

CNC(=O)Nc1ccc(-c2nc(N3CC4CCC(C3)O4)c3cnn(C4CCC5(CC4)OCCO5)c3n2)cc1
% of control [8]: 82%

COc1cc(Nc2nc(C)cc(-c3cnn4nc(OC)ccc34)n2)cc(C(F)(F)F)c1
% of control [9]: 95%

Cc1cc(F)c(C(=O)Nc2cccc(-c3nncn3C(C)C)n2)cc1-n1cnc(C2CC2)c1
% of control [10]: 63%
